Key:
Test in all cases: Carna kinome panel
Format in all cases: biochemical
Conditions in all cases: read-out: % Inhibition at 10 μM of the test compound
FYN(isoform a) = FYN(isoform a) (Homo sapiens (Human), UniProt P06241)
p38γ = p38γ (Homo sapiens (Human), UniProt P53778)
BRAF_Cascade = BRAF_Cascade (Homo sapiens (Human), UniProt P15056)
Erk5 = Erk5 (Homo sapiens (Human), UniProt Q13164)
EPHA8 = EPHA8 (Homo sapiens (Human), UniProt P29322)
SLK = SLK (Homo sapiens (Human), UniProt Q9H2G2)
DAPK1 = DAPK1 (Homo sapiens (Human), UniProt P53355)
FGFR1(V561M) = FGFR1(V561M) (Homo sapiens (Human), UniProt P11362, V561M)
ABL(E255K) = ABL(E255K) (Homo sapiens (Human), UniProt P00519, E255K)
Sequence of ABL(E255K) (P00519 whole entry E255K): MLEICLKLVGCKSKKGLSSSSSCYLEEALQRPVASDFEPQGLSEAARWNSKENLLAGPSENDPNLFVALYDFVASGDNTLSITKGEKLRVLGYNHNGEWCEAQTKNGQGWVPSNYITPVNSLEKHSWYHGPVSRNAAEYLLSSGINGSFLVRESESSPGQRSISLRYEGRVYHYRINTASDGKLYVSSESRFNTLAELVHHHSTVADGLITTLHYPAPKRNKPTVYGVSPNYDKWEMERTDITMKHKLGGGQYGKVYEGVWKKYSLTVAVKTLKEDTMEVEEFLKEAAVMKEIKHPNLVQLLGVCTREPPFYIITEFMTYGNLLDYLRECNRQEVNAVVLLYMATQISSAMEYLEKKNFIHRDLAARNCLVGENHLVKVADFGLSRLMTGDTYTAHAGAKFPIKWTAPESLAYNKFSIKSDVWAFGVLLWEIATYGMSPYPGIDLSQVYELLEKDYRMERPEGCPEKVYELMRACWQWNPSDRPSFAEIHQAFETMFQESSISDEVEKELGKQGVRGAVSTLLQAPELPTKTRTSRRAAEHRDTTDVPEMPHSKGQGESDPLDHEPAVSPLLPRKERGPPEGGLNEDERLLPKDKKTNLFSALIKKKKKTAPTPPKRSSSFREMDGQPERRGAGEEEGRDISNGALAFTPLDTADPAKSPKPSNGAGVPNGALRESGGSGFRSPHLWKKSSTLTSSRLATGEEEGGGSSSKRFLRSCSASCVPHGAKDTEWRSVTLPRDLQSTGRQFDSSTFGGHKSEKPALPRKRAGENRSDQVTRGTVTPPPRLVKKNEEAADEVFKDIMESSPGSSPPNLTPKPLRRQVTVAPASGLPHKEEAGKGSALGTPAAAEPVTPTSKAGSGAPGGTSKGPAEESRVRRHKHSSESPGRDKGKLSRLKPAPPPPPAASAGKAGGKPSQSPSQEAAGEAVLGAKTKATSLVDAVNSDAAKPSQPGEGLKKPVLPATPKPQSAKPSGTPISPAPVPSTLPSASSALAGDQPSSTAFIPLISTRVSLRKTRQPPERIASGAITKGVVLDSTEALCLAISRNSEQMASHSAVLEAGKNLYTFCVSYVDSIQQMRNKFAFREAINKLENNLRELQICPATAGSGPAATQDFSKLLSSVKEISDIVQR

EPHA6 = EPHA6 (Homo sapiens (Human), UniProt Q9UF33)
Sequence of EPHA6 (Q9UF33 23-1036): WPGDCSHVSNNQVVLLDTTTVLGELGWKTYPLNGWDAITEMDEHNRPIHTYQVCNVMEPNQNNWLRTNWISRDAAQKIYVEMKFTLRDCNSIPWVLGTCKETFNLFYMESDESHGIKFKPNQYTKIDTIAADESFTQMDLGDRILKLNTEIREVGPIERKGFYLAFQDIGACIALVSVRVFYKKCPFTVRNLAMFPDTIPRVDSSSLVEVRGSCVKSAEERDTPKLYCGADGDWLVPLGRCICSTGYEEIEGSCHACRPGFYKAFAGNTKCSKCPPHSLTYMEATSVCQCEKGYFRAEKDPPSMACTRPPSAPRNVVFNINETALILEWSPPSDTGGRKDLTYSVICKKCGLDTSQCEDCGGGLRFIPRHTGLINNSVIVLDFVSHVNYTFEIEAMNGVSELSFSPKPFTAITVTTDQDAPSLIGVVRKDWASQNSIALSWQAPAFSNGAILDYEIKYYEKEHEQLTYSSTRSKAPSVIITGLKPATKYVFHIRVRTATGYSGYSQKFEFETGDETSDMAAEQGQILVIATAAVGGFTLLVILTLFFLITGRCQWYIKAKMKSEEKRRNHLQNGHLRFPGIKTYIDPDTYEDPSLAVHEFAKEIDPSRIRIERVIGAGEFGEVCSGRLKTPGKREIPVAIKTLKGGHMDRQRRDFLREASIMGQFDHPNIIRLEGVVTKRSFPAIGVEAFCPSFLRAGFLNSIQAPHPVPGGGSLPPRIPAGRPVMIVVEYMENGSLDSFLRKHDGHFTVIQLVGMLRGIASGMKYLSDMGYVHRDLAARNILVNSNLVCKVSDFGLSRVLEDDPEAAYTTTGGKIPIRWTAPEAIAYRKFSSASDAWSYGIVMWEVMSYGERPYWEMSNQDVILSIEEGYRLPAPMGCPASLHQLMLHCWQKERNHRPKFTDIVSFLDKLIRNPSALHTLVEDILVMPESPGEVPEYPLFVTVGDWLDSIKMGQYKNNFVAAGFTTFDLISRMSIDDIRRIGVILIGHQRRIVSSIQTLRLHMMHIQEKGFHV
Description: Briefly, a selection of compounds was screened against a panel of kinases at a single concentration of 10 μM. […] This was completed using one of two assays, depending on the kinase being examined: 1) IMAP Assay. A solution of 4× inhibitor, 4× substrate/ATP/metal solution and 2× kinase solution was prepared with assay buffer (20 mM HEPES, 0.01% Tween-20, 2 mM DTT, pH 7.4) and mixed, then incubated in 384-well black plates for 1 hour at room temperature. The IMAP binding reagent (IMAP Screening Express kit; Molecular Devices) was added to each well and incubated for 30 minutes. […] 2) Off-Chip Mobility Shift Assay (MSA). A solution of 4× inhibitor, 4× substrate/ATP/metal solution and 2× kinase solution was prepared with assay buffer (20 mM HEPES, 0.01% Triton X-100, 2 mM DTT, pH 7.5) and mixed, then incubated in 384-well plates for 1 or 5 hours depending on the kinase, at room temperature. Termination buffer (QuickScout Screening assist MSA; Carna Biosciences) was added to each well. The entire reaction mixture was then applied to a LabChip3000 system (Caliper Life Science), and the product and substrate peptide peaks were separated and quantified. […] The entire reaction mixture was then applied to a LabChip3000 system (Caliper Life Science), and the product and substrate peptide peaks were separated and quantified.

FER = FER (Homo sapiens (Human), UniProt P16591)
Sequence of FER (P16591 whole entry): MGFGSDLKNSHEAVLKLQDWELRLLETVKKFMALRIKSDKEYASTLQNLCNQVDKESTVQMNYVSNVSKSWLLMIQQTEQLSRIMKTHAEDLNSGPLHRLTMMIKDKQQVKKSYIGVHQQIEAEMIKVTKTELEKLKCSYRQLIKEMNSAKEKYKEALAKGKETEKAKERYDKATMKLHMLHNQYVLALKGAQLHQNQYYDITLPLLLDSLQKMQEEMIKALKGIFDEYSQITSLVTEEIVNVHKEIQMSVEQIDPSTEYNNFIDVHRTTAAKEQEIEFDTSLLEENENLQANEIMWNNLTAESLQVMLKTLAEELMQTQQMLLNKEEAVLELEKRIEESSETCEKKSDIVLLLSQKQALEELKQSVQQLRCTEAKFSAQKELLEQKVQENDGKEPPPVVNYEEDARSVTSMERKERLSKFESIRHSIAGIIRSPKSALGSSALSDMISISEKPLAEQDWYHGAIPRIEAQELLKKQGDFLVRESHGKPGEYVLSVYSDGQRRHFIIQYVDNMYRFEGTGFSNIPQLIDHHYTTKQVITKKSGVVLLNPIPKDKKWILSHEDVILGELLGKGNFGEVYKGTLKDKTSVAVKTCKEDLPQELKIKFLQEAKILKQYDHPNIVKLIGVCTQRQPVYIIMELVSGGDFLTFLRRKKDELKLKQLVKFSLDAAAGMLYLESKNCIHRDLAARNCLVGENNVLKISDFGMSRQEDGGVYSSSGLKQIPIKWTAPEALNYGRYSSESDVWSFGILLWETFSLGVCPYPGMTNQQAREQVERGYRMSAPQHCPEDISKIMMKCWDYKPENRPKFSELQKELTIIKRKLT

ROCK1 = ROCK1 (Homo sapiens (Human), UniProt Q13464)
JNK1 = JNK1 (Homo sapiens (Human), UniProt P45983)
FGFR2 = FGFR2 (Homo sapiens (Human), UniProt P21802)
AMPKα1/β1/γ1 = AMPKα1/β1/γ1 (Homo sapiens (Human), UniProt Q13131)
Haspin = Haspin (Homo sapiens (Human), UniProt Q8TF76)
HIPK2 = HIPK2 (Homo sapiens (Human), UniProt Q9H2X6)
PDGFRβ = PDGFRβ (Homo sapiens (Human), UniProt P09619)
EEF2K = EEF2K (Homo sapiens (Human), UniProt O00418)
IGF1R = IGF1R (Homo sapiens (Human), UniProt P08069)
CLK1 = CLK1 (Homo sapiens (Human), UniProt P49759)
DCAMKL2 = DCAMKL2 (Homo sapiens (Human), UniProt Q8N568)
CaMK1δ = CaMK1δ (Homo sapiens (Human), UniProt Q8IU85)
BMX = BMX (Homo sapiens (Human), UniProt P51813)
CDK6/CycD3 = CDK6/CycD3 (Homo sapiens (Human), UniProt Q00534)
MSK1 = MSK1 (Homo sapiens (Human), UniProt O75582)
Sequence of MSK1 (O75582 whole entry): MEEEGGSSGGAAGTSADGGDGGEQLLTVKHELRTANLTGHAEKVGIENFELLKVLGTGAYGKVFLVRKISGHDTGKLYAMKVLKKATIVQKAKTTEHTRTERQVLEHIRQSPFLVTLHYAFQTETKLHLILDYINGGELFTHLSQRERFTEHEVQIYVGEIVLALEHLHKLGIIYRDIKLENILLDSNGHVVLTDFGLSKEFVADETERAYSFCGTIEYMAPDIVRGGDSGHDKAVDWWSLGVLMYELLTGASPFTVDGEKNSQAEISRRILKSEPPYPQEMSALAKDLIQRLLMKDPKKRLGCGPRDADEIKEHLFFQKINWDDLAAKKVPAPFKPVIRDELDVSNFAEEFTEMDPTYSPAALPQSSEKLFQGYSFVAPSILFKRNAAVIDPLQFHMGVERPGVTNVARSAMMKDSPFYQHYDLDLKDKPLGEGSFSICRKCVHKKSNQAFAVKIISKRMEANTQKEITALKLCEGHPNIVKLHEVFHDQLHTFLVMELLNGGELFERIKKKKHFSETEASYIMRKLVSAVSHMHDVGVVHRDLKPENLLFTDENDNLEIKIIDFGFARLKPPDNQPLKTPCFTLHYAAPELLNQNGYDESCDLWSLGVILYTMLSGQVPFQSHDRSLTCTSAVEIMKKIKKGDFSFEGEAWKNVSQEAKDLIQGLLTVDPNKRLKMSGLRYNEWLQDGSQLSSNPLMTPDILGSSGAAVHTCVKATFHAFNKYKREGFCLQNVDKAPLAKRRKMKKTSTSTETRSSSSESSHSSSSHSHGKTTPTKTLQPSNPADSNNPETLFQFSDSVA

CLK3 = CLK3 (Homo sapiens (Human), UniProt P49761)
Sequence of CLK3 (P49761 whole entry): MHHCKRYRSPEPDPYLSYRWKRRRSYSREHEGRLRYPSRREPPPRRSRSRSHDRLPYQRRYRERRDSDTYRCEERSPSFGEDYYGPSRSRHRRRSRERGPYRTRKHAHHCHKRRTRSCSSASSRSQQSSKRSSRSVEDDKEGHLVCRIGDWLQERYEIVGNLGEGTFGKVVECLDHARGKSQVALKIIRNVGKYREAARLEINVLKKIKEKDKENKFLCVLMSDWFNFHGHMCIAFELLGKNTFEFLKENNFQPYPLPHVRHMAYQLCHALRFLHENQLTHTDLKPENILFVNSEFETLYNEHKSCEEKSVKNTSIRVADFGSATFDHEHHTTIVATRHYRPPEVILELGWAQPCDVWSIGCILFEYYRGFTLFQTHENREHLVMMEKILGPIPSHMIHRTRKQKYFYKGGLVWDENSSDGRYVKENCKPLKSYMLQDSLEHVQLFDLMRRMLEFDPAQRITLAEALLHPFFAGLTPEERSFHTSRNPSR

SGK3 = SGK3 (Homo sapiens (Human), UniProt Q96BR1)
ITK = ITK (Homo sapiens (Human), UniProt Q08881)
LATS2 = LATS2 (Homo sapiens (Human), UniProt Q9NRM7)
PAK2 = PAK2 (Homo sapiens (Human), UniProt Q13177)
CDK7/CycH/MAT1 = CDK7/CycH/MAT1 (Homo sapiens (Human), UniProt P50613)
PKN1 = PKN1 (Homo sapiens (Human), UniProt Q16512)

Sequence of Erk5 (Q13164 whole entry, looked up): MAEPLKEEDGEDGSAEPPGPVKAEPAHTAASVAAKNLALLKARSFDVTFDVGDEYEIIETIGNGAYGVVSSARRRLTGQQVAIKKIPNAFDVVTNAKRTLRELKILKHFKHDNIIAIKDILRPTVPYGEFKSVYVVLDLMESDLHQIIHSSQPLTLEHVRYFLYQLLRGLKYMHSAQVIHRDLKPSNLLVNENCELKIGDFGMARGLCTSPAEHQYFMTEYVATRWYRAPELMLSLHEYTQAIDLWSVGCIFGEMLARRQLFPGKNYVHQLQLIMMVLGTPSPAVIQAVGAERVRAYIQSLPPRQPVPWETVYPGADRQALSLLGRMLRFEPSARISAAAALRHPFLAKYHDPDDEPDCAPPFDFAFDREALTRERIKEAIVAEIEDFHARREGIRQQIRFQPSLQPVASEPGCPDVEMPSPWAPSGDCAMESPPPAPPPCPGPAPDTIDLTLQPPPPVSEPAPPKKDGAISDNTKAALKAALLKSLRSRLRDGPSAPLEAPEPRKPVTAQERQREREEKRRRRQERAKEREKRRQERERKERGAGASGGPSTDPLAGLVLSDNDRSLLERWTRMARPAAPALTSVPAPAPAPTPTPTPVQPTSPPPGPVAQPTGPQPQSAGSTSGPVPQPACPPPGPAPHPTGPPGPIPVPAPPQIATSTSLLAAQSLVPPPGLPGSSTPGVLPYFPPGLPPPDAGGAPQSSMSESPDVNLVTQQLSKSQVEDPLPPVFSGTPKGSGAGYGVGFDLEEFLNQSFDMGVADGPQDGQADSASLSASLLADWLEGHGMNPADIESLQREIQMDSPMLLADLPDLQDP

## CCC1(c2ccccc2)C2=C(CC(C)(C)CC2=O)Nc2ncsc21 (stereo not drawn) [Compound 1, 9-Ethyl-6,6-dimethyl-9-phenyl-5,6,7,9-tetrahydrothiazolo[4,5-b]quinolin-8(4H)-one]
FYN(isoform a)
  inhibition at 10 µM: 1.8%
p38γ
  inhibition at 10 µM: 8.9%
BRAF_Cascade
  inhibition at 10 µM: 6.2%
Erk5
  inhibition at 10 µM: -0.6%
EPHA8
  inhibition at 10 µM: 3%
SLK
  inhibition at 10 µM: -0.6%
DAPK1
  inhibition at 10 µM: -8.7%
FGFR1(V561M)
  inhibition at 10 µM: 2.6%
ABL(E255K)
  inhibition at 10 µM: -1.4%
EPHA6
  inhibition at 10 µM: 21.3%
FER
  inhibition at 10 µM: -7.5%
ROCK1
  inhibition at 10 µM: 7%
JNK1
  inhibition at 10 µM: -7.3%
FGFR2
  inhibition at 10 µM: 1.4%
AMPKα1/β1/γ1
  inhibition at 10 µM: 7.6%
Haspin
  inhibition at 10 µM: 1.5%
HIPK2
  inhibition at 10 µM: -2.5%
PDGFRβ
  inhibition at 10 µM: 2.5%
EEF2K
  inhibition at 10 µM: 1.6%
IGF1R
  inhibition at 10 µM: 2%
CLK1
  inhibition at 10 µM: -7.2%
DCAMKL2
  inhibition at 10 µM: -7.6%
CaMK1δ
  inhibition at 10 µM: 1.3%
BMX
  inhibition at 10 µM: -10.6%
CDK6/CycD3
  inhibition at 10 µM: 5.5%
MSK1
  inhibition at 10 µM: -1%
CLK3
  inhibition at 10 µM: 3.9%
SGK3
  inhibition at 10 µM: -2.3%
ITK
  inhibition at 10 µM: 0%
LATS2
  inhibition at 10 µM: 5.4%
PAK2
  inhibition at 10 µM: -15.7%
CDK7/CycH/MAT1
  inhibition at 10 µM: 22.6%
PKN1
  inhibition at 10 µM: 8.9%

From patent US11203601B2, “Tricyclic compounds as glycogen synthase kinase 3 (GSK3) inhibitors and uses thereof” (The Broad Institute, Inc., priority 2017, dated 2021)
